Experimental data as given in US20260248787A9, “MEDICAMENT FOR TREATING CANCER COMPRISING OPTICALLY ACTIVE AZABICYCLO RING DERIVATIVE” (Sumitomo Pharma Co., Ltd., priority 2023, published 2026).

Experiment: Phase 1/2 first-in-human clinical study, safety evaluation (DLT, TEAE, SAE)
Method: Arm A: Patients without azole antifungal treatment within 7 days (or 21 days for isavuconazole) of first dose of the present compound
Arm B: Patients receiving posaconazole, voriconazole, or fluconazole antifungal prophylaxis at enrollment
The safety of each dose level also was evaluated by the SRC, which was comprised of all investigators participating in the study and selected Sponsor study team members. The dose recommended by the BLRM method was treated as guidance and was integrated with a clinical assessment of toxicity information and review of other available data, including safety, PK, pharmacodynamic, and laboratory data.
When the Dose Limiting Toxicity (DLT) evaluation for each cohort was completed, the SRC determined a next dose level based on the DLT and other available data, including safety, PK, pharmacodynamic, and laboratory data with reference to the Bayesian Logistic Regression Model (BLRM) recommendation.
Dose escalation decisions were made after all patients in a dose level cohort have at least completed Cycle 1. All available data were presented along with the BLRM predictions for toxicity probabilities at the potential next dose levels. The SRC then determined the dose(s) for the next cohort(s).

C=C1C[C@@H]2CC[C@H]1[C@@H](C(=O)N1CCC3(CC1)CN(c1ncncc1Oc1ccc(F)cc1C(=O)N(C(C)C)C(C)C)C3)N2 [the present compound, 5-fluoro-2-[(4-{7-[(1S,3S,4R)-5-methylidene-2-azabicyclo[2.2.2]octane-3-carbonyl]-2,7-diazaspiro[3.5]nonan-2-yl}pyrimidin-5-yl)oxy]-N,N-di(propan-2-yl)benzamide]
TEAE: Disease progression (Arm B N=10, ≥Grade 3): 2 (20.0) n (%)
TEAE: Dyspnoea (Arm B N=10, ≥Grade 3): 0 n (%)
TEAE: Epistaxis (Arm B N=10, ≥Grade 3): 0 n (%)
TEAE: Fatigue (Arm B N=10, ≥Grade 3): 0 n (%)
TEAE: Gastrointestinal disorders (Arm B N=10, ≥Grade 3): 0 n (%)
TEAE: General disorders and administration site disorders (Arm B N=10, ≥Grade 3): 2 (20.0) n (%)
TEAE: Headache (Arm B N=10, ≥Grade 3): 0 n (%)
TEAE: Hemorrhoids (Arm B N=10, ≥Grade 3): 0 n (%)
TEAE: Hypertriglyceridaemia (Arm B N=10, ≥Grade 3): 1 (10.0) n (%)
TEAE: Hypoalbuminaemia (Arm B N=10, ≥Grade 3): 0 n (%)
TEAE: Hypocalcaemia (Arm B N=10, ≥Grade 3): 1 (10.0) n (%)
TEAE: Hypomagnaesemia (Arm B N=10, ≥Grade 3): 0 n (%)
TEAE: Hyponatraemia (Arm B N=10, ≥Grade 3): 0 n (%)
TEAE: Infections and Infestations (Arm B N=10, ≥Grade 3): 4 (40.0) n (%)
TEAE: Investigations (Arm B N=10, ≥Grade 3): 1 (10.0) n (%)
TEAE: Metabolism and nutrition disorders (Arm B N=10, ≥Grade 3): 4 (40.0) n (%)
TEAE: Musculoskeletal and connective tissue disorders (Arm B N=10, ≥Grade 3): 1 (10.0) n (%)
TEAE: Nausea (Arm B N=10, ≥Grade 3): 0 n (%)
TEAE: Nervous System Disorders (Arm B N=10, ≥Grade 3): 0 n (%)
TEAE: Oedema peripheral (Arm B N=10, ≥Grade 3): 0 n (%)
TEAE: Pain in extremity (Arm B N=10, ≥Grade 3): 0 n (%)
TEAE: Platelet count decreased (Arm B N=10, ≥Grade 3): 0 n (%)
TEAE: Pneumonia (Arm B N=10, ≥Grade 3): 2 (20.0) n (%)
TEAE: Pruritus (Arm B N=10, ≥Grade 3): 0 n (%)
TEAE: Pyrexia (Arm B N=10, ≥Grade 3): 0 n (%)
TEAE: Respiratory, thoracic and mediastinal disorders (Arm B N=10, ≥Grade 3): 0 n (%)
TEAE: Sepsis (Arm B N=10, ≥Grade 3): 2 (20.0) n (%)
TEAE: Skin and subcutaneous tissue disorders (Arm B N=10, ≥Grade 3): 0 n (%)
TEAE: Stomatitis (Arm B N=10, ≥Grade 3): 0 n (%)
TEAE: Vomiting (Arm B N=10, ≥Grade 3): 0 n (%)
related TEAE: Aspartate aminotransferase increased (Arm B N=10, ≥Grade 3): 1 (10.0) n (%)
related TEAE: Blood and lymphatic system disorders (Arm B N=10, ≥Grade 3): 1 (10.0) n (%)
related TEAE: Decreased appetite (Arm B N=10, ≥Grade 3): 0 n (%)
related TEAE: Differentiation syndrome (Arm B N=10, ≥Grade 3): 0 n (%)
related TEAE: Gastrointestinal disorders (Arm B N=10, ≥Grade 3): 0 n (%)
related TEAE: General disorders and administration site conditions (Arm B N=10, ≥Grade 3): 0 n (%)
related TEAE: Headache (Arm B N=10, ≥Grade 3): 0 n (%)
related TEAE: Hypertriglyceridaemia (Arm B N=10, ≥Grade 3): 1 (10.0) n (%)
related TEAE: Hyperuricaemia (Arm B N=10, ≥Grade 3): 0 n (%)
related TEAE: Increased appetite (Arm B N=10, ≥Grade 3): 0 n (%)
related TEAE: Investigations (Arm B N=10, ≥Grade 3): 1 (10.0) n (%)
related TEAE: Leukocytosis (Arm B N=10, ≥Grade 3): 1 (10.0) n (%)
related TEAE: Metabolism and nutrition disorders (Arm B N=10, ≥Grade 3): 1 (10.0) n (%)
related TEAE: Nausea (Arm B N=10, ≥Grade 3): 0 n (%)
related TEAE: Neoplasms benign, malignant and unspecified (incl cysts and polyps) (Arm B N=10, ≥Grade 3): 0 n (%)
related TEAE: Nervous system disorders (Arm B N=10, ≥Grade 3): 0 n (%)
related TEAE: Thirst (Arm B N=10, ≥Grade 3): 0 n (%)
related TEAE: Vomiting (Arm B N=10, ≥Grade 3): 0 n (%)
TEAE: Hypokalaemia (Arm B N=10, ≥Grade 3 (not related to the present compound)): 3 (30.0)*^3 n (%)
Hematological TEAE regardless of causality: Anaemia (N=57, Any Grade): 9 (15.8%) n (%)
Hematological TEAE regardless of causality: Febrile neutropenia (N=57, Any Grade): 12 (21.1%) n (%)
Hematological TEAE regardless of causality: Leukocytosis (N=57, Any Grade): 10 (17.5%) n (%)
Hematological TEAE regardless of causality: Neutrophil count decreased (N=57, Any Grade): 7 (12.3%) n (%)
Hematological TEAE regardless of causality: Platelet count decreased (N=57, Any Grade): 9 (15.8%) n (%)
Non-hematological TEAE regardless of causality: Arthralgia (N=57, Any Grade): 6 (10.5%) n (%)
Non-hematological TEAE regardless of causality: Back pain (N=57, Any Grade): 8 (14.0%) n (%)
Non-hematological TEAE regardless of causality: COVID-19 (N=57, Any Grade): 6 (10.5%) n (%)
Non-hematological TEAE regardless of causality: Constipation (N=57, Any Grade): 11 (19.3%) n (%)
Non-hematological TEAE regardless of causality: Cough (N=57, Any Grade): 7 (12.3%) n (%)
Non-hematological TEAE regardless of causality: Decreased appetite (N=57, Any Grade): 15 (26.3%) n (%)
Non-hematological TEAE regardless of causality: Diarrhoea (N=57, Any Grade): 10 (17.5%) n (%)
Non-hematological TEAE regardless of causality: Dizziness (N=57, Any Grade): 8 (14.0%) n (%)
Non-hematological TEAE regardless of causality: Dysgeusia (N=57, Any Grade): 6 (10.5%) n (%)
Non-hematological TEAE regardless of causality: Dyspnoea (N=57, Any Grade): 13 (22.8%) n (%)
Non-hematological TEAE regardless of causality: Electrocardiogram QT prolonged (N=57, Any Grade): 7 (12.3%) n (%)
Non-hematological TEAE regardless of causality: Epistaxis (N=57, Any Grade): 10 (17.5%) n (%)
Non-hematological TEAE regardless of causality: Fatigue (N=57, Any Grade): 10 (17.5%) n (%)
Non-hematological TEAE regardless of causality: Haemorrhage intracranial (N=57, Any Grade): 6 (10.5%) n (%)
Non-hematological TEAE regardless of causality: Headache (N=57, Any Grade): 15 (26.3%) n (%)
Non-hematological TEAE regardless of causality: Hypertension (N=57, Any Grade): 8 (14.0%) n (%)
Non-hematological TEAE regardless of causality: Hypotension (N=57, Any Grade): 7 (12.3%) n (%)
Non-hematological TEAE regardless of causality: Muscular weakness (N=57, Any Grade): 9 (15.8%) n (%)
Non-hematological TEAE regardless of causality: Myalgia (N=57, Any Grade): 6 (10.5%) n (%)
Non-hematological TEAE regardless of causality: Nausea (N=57, Any Grade): 23 (40.4%) n (%)
Non-hematological TEAE regardless of causality: Oedema peripheral (N=57, Any Grade): 9 (15.8%) n (%)
Non-hematological TEAE regardless of causality: Pain in extremity (N=57, Any Grade): 8 (14.0%) n (%)
Non-hematological TEAE regardless of causality: Pneumonia (N=57, Any Grade): 10 (17.5%) n (%)
Non-hematological TEAE regardless of causality: Pyrexia (N=57, Any Grade): 9 (15.8%) n (%)
Non-hematological TEAE regardless of causality: Sepsis (N=57, Any Grade): 11 (19.3%) n (%)
Non-hematological TEAE regardless of causality: Stomatitis (N=57, Any Grade): 11 (19.3%) n (%)
Non-hematological TEAE regardless of causality: Vomiting (N=57, Any Grade): 20 (35.1%) n (%)
Non-hematological laboratory change regardless of causality: ALT increase (N=57, Any Grade): 28 (49.1%) n (%)
Non-hematological laboratory change regardless of causality: AST increase (N=57, Any Grade): 23 (40.4%) n (%)
Non-hematological laboratory change regardless of causality: Hypertriglyceridemia (N=57, Any Grade): 45 (7.9%) n (%)
Non-hematological laboratory change regardless of causality: Hypocalcemia (N=57, Any Grade): 33 (57.9%) n (%)
Non-hematological laboratory change regardless of causality: Hypokalemia (N=57, Any Grade): 34 (7.0%) n (%)
Non-hematological laboratory change regardless of causality: Hypomagnesemia (N=57, Any Grade): 26 (4.6%) n (%)
Non-hematological laboratory change regardless of causality: Hyponatremia (N=57, Any Grade): 32 (56.1%) n (%)
Non-hematological laboratory change regardless of causality: Hypophosphatemia (N=57, Any Grade): 19 (33.3%) n (%)
Treatment related adverse event: Nausea (N=57, Any Grade): 10 (17.5%) n (%)
Treatment related adverse event: Vomiting (N=57, Any Grade): 7 (12.3%) n (%)
Hematological TEAE regardless of causality: Anaemia (N=57, Grade ≥3): 8 (14.0%) n (%)
Hematological TEAE regardless of causality: Febrile neutropenia (N=57, Grade ≥3): 12 (21.1%) n (%)
Hematological TEAE regardless of causality: Leukocytosis (N=57, Grade ≥3): 4 (7.0%) n (%)
Hematological TEAE regardless of causality: Neutrophil count decreased (N=57, Grade ≥3): 6 (10.5%) n (%)
Hematological TEAE regardless of causality: Platelet count decreased (N=57, Grade ≥3): 8 (14.0%) n (%)
Non-hematological TEAE regardless of causality: Arthralgia (N=57, Grade ≥3): 1 (1.8%) n (%)
Non-hematological TEAE regardless of causality: Back pain (N=57, Grade ≥3): 1 (1.8%) n (%)
